Source: patent US4874780A, “Anticancer compounds” (Norsk Hydro a.s., priority 1987, dated 1989)
Where two headings read alike, the source gives them in different places.

What was measured:
Stability in vitro = assay type: in vitro ADME
NHIK 3025 cells [1] = settings: Pettersen et al. 1983, cited from earlier work
NHIK 3025 cells [2] = test: Protein synthesis rate ((3H)valine incorporation); assay type: cell-based, human; settings: 3.2 mM
Excerpt: (§1) Human cells of the established line NHIK 3025, originating from a cervical carcinoma in situ (Nordbye, K., and Oftebro, R. Exp. Cell Res., 58: 458, 1969), Oftebro, R., and Nordbye, K., Exp. Cell Res., 58: 459-460, 1969) were cultivated in Medium E2a (Puck, T.T. et al., J. Exp. Med., 106:145-165, 1957) supplemented with 20% human (prepared at the laboratory) and 10% horse serum (Grand Island Biological Co.). The cells are routinely grown as monolayers in tissue culture flasks.
(§2) The cells were kept in continuous exponential growth by frequent reculturing, i.e., every second and third day, and synchronized cell populations with a high degree of synchrony were obtained by repeated selection of mitotic cells (Pettersen, E. O. et al, Cell Tissue Kinet., 10: 511-522, 1977). During the synchronization procedure, the cells were kept in Medium E2a, and the whole experiment took place in a walk-in incubator at 37° C. Under growth conditions as used here, the NHIK 3025 cells have a medium cell-cycle time of ~18 hr, with medium G1, S1 and G2 durations of ~7, ~8, and ~2.5 hr, respectively.
The rate of protein synthesis was calculated as described previously (Ronning, O. W. et al., J. Cell Physiol., 107: 47-57, 1981). Briefly, cellular protein was labeled to saturation during a 2-day preincubation with (^14 C)valine of constant specific radioactivity (0.5 Ci/mol) prior to the experiment. This was achieved by using a high concentration of valine so that the dilution of (^14 C)valine by intracellular valine and by proteolytically generated valine will be negligible (Ronning, O. W., et al. Exp. Cell Res. 123: 63-72, 1979), thus keeping the specific radioactivity at a constant level. The rate of protein synthesis was calculated from the incorporation of (3H)valine of constant specific activity. The incorporation measurements were related to the total of (^14 C) radioactivity in protein at the beginning of the respective measurement periods and expressed as the percentage per hr (Ronning, O. W. et al, J. Cell, Physiol. 107: 47-57, 1981).
[…] The last measurements were done to test the reversibility of the drugs. Drug concentration: 3.2 mM.

[3] = Concentration of BG or BG-d1 in blood samples after iv injection (HPLC); assay type: in vivo, male Wistar rats
Experimental: Measurement of concentration of 4,6-O-benzylidene-D-glucose (BG) or 4,6-O-deuterobenzylidene-d1 -D-glucose (BG-d1) in blood samples (Table 5).
(§3) Blood samples were taken from male Wistar rats immediately before and at several intervals after intravenous injection of BG or BG-d1. Blood serum was separated by centrifugation. Equal amounts of blood serum and HPLC-grade acetonitrile were mixed and centrifuged at 13,000 rpm (15,000×g) for 5 minutes. Samples were then analyzed for BG or BG-d1 content by High Performance Liquid Chromatography (HPLC). Samples were placed in an autosampler programmed for replicate injections of […] each onto a 4.6×250 mm LC18 HPLC column. The column was eluted with 45% aqueous methanol delivered at 1 ml/min. BG or BG-d1 were detected by using a spectrofluorometer set at excitation and emission wavelengths of 255 and 283 nm, respectively. The slit width used was 10 nm. Quantitation of the amount of BG or BG-d1 in serum samples was performed with an electronic integrator calibrated with standard solutions of BG or BG-d1 in the mobile phase (Pettersen et al., Anticancer Res., 6; 147-152, 1986).
We have compared the metabolism in rats of BG as well as of deuterated BG (BG-d1). In Table 5 the serum concentration of BG or BG-d1 is shown at various time points after a single iv injection of each drug, respectively.

[4] = BG or BG-d1 metabolites in blood samples after iv injection (HPLC peak height); assay type: in vivo, male Wistar rats; settings: rat
Experimental: as §3
Measurement of BG or BG-d1 metabolites in blood samples (Table 6)
HPLC of blood samples was performed as indicated above. Relative amounts of BG- or BG-d1 -metabolite were determined by peak height analysis. The peak height from the electronic integrator (in microvolts) of samples taken 30 minutes after iv injection of BG, or 60 minutes after iv injection of BG-d1 were normalized to 1. All other metabolite peaks were compared with these values.
At the same time as BG or BG-d1 metabolism was being determined, a separate metabolite peak appeared in HPLC chromatograms. The increase in BG- and BG-d1 -metabolite and subsequent clearance was measured.

NHIK 3025 cells [5] = test: Cell survival (colony formation) after 24 hr treatment; assay type: cell-based; settings: Homo sapiens, NHIK3025, 24 h
Excerpt: as §1, §2
For measurement of cell survival, appropriate numbers of cells were seeded in plastic Petri dishes (.phi.=5 cm). The number of cells seeded into each dish was adjusted such that the number of surviving cells would be approximately 150 per dish. While exponentially growing (asynchronous) cells were trypsinized before seeding, synchronized cells were seeded immediately after selection. After about 2 hr, the cells had attached to the bottom of the dishes, and the treatment was started by replacing the medium with medium containing the appropriate drug concentration. After the desired time of treatment, the drug-containing medium was removed, and fresh medium was added. The dishes were rinsed once with the same medium as was to be added on addition or removal of drug. After 10 to 12 days at 37° C. in a CO2 incubator, the cells were fixed in ethanol and stained with methylene blue before the colonies were counted.
The cytotoxic effect of benzaldehyde and of deuterobenzaldehyde-d1 was tested on asynchronous, exponentially growing NHIK 3025 cells by counting the number of cells able to form colonies after 24 hr treatment in Petri dishes. In Table 1 the results represent 2 different, independent experiments where the numbers give the mean fraction of surviving cells from 10 parallel dishes (± standard error).
Fraction of cells surviving 24 hr treatment with benzaldehyde or deuterobenzaldehyde - d1 in Petri dishes. (The values represent the mean±standard error from 10 different dishes.)

NHIK 3025 cells [6] = settings: previous studies (Pettersen et al. 1983), cited from earlier work
NHIK 3025 cells [7] = test: Duration of cell cycle-time of synchronized cells; assay type: cell-based, human; settings: 8 hr treatment
Excerpt: as §1, §2
(§4) For detection of the drug effects on cell-cycle kinetics, the same methods were used as described previously (Lindmo, T., and Pettersen, E. O., Cell Tissue Kinet., 12: 43-57, 1979), (Pettersen, E. O. et al, Eur. J. Cancer Clin. Oncol., 19: 507-514; 1983), (Ronning, O.W. et al., J. Cell. Physiol., 109: 411-419, 1981). Briefly, the selected mitotic cells were seeded into 8 tissue culture flasks (25 sq cm) 5000 cells per flask. The cells divided within 1 hr and attached as doublets to the bottom of the flasks. […] Analyses of durations of mitosis were performed from these observations (Table 4).
This is shown by the data in Table 3, where we have used synchronized cells treated over an 8 hr period starting 2 hr after mitotic selection, i.e. when the cells were in early Gl.

NHIK 3025 cells [8] = settings: previous studies; cited from earlier work
NHIK 3025 cells [9] = test: Duration of mitosis of synchronized cells; assay type: cell-based, human; settings: 3.2 mM during mitosis
Excerpt: as §1, §2, §4
This effect is probably directly related to the aldehyde group (Pettersen et al. Cancer Res. 45: 2085-2091, 1985). If the deuterated aldehyde group induces different biological effects from the undeuterated one it is therefore good reason to expect this to be expressed as a difference in effect on cells in mitosis. In Table 4 results are shown on prolongation of mitosis of synchronized cells treated with benzaldehyde or deuterobenzaldehyde-d1 during mitosis. The numbers in the table represent the percentage of the cells having a duration of mitosis below 1 hr (which is normal for untreated cells) or above the number of hours indicated on top of each column.

NHIK 3025 cells [10] = settings: Pettersen et al. 1983, cited from earlier work; remark: listed apart in the source
mucous membranes = settings: pure form; cited from earlier work
[11] = read-out: Cell survival of cells treated for 24 hr
[12] = read-out: Fraction of cells surviving 24 hr treatment

Structure (SMILES): OC1O[C@@H]2COC(c3ccccc3)O[C@H]2[C@H](O)[C@H]1O (stereo partly drawn) [BG, 4,6-O-benzylidene-D-glucose]
- Period over which compound is stable in vitro (Stability in vitro): at least 24 hr
- Protein synthesis inhibition (in words) (NHIK 3025 cells [1]): only protein synthesis inhibition is known to appear during treatment with BG
- Protein synthesis (NHIK 3025 cells [2]; asynchronous cells, 3 hr treatment, pulse 0-1 hr, during treatment, Table 8, control 5.7 ± 0.5): 2.9 ± 0.7 %/hr
- Protein synthesis (NHIK 3025 cells [2]; asynchronous cells, 3 hr treatment, pulse 2-3 hr, during treatment, Table 8, control 5.7 ± 0.5): 2.9 ± 0.1 %/hr
- Protein synthesis (NHIK 3025 cells [2]; synchronized cells, 22 hr treatment, pulse 21-22 hr, during treatment, Table 8, control 5.3 ± 0.2): 4.8 ± 0.5 %/hr
- Protein synthesis (NHIK 3025 cells [2]; synchronized cells, 22 hr treatment, pulse 23-24 hr, after treatment, Table 8, control 5.3 ± 0.2): 5.5 ± 0.1 %/hr
- half-life in vivo (in words) ([3]; in vivo): relatively short half-life in vivo
- Amount of unmetabolized drug in blood samples ([3]; rat, iv, 60 minutes, N.F. = Not Found): N.F.
- concentration at 0 h ([3]; serum, rat, iv, 0 minutes (estimated), read-out: Amount of unmetabolized drug in blood samples): 345 µM
- concentration at 2 min ([3]; serum, rat, iv, 2 minutes, read-out: Amount of unmetabolized drug in blood samples): 230 ± 16 µM
- concentration at 5 min ([3]; serum, rat, iv, 5 minutes, read-out: Amount of unmetabolized drug in blood samples): 110 ± 10 µM
- concentration at 10 min ([3]; serum, rat, iv, 10 minutes, read-out: Amount of unmetabolized drug in blood samples): 96 ± 15 µM
- concentration at 0.25 h ([3]; serum, rat, iv, 15 minutes, read-out: Amount of unmetabolized drug in blood samples): 66 ± 18 µM
- concentration at 20 min ([3]; serum, rat, iv, 20 minutes, read-out: Amount of unmetabolized drug in blood samples): 48 ± 11 µM
- concentration at 25 min ([3]; serum, rat, iv, 25 minutes, read-out: Amount of unmetabolized drug in blood samples): 40 ± 5 µM
- concentration at 0.5 h ([3]; serum, rat, iv, 30 minutes, read-out: Amount of unmetabolized drug in blood samples): 33 ± 8 µM
- half-life ([3]; serum, rat, iv, read-out: half-life in vivo): ~5 min
- Relative amount of metabolite ([4]; 30 minutes after iv injection, BG sample normalized to 1): 1.00
- Relative amount of metabolite ([4]; 45 minutes after iv injection, maximum peak = 1): 0.927 ± 0.008
- viability at 6400 µM (NHIK 3025 cells [5]; [11]): 30 ± 5%
- viability at 12800 µM (NHIK 3025 cells [5]; [11]): 0.78 ± 0.18%

Structure (SMILES): O=Cc1ccccc1 [Benzaldehyde]
- Inhibition during mitosis (in words) (NHIK 3025 cells [6]): induces specific inhibition during mitosis
- Inhibition during mitosis (in words) (NHIK 3025 cells [6]; listed as benzaldehyde): specific prolongation of mitosis
- Protein synthesis inhibition (in words) (NHIK 3025 cells [1]): inhibit protein sythesis in a reversible manner
- Protein synthesis inhibition (in words) (NHIK 3025 cells [1]; listed as benzaldehyde): protein synthesis inhibition
- Protein synthesis (NHIK 3025 cells [2]; 4 hr treatment, pulse 0-1, during treatment, Table 2, control 6.8 ± 0.9): 3.7 ± 0.3 %/hr
- Protein synthesis (NHIK 3025 cells [2]; 4 hr treatment, pulse 4-5, after treatment, Table 2, control 6.8 ± 0.9): 5.1 ± 0.3 %/hr
- Protein synthesis (NHIK 3025 cells [2]; 4 hr treatment, pulse 5-6, after treatment, Table 2, control 6.8 ± 0.9): 6.7 ± 0.5 %/hr
- Prolongation (NHIK 3025 cells [7]; 2 mM, versus control 1): 7.9%
- Duration of the part of the cell cycle starting 2 hr after selection (NHIK 3025 cells [7]; 2 mM, control 1 16.5): 17.8
- Prolongation (NHIK 3025 cells [7]; 2.5 mM, versus control 2): 63.7%
- Duration of the part of the cell cycle starting 2 hr after selection (NHIK 3025 cells [7]; 2.5 mM, control 2 16.8): 27.5
- Inactivation of cells treated during mitosis (in words) (NHIK 3025 cells [8]): inactivated efficiently by benzaldehyde
- Percentage of cells with duration of mitosis >4 h (NHIK 3025 cells [9]): 49%
- Percentage of cells with duration of mitosis >5 h (NHIK 3025 cells [9]): 35%
- Percentage of cells with duration of mitosis >6 h (NHIK 3025 cells [9]): 21%
- Percentage of cells with duration of mitosis >3 h (NHIK 3025 cells [9]; control 2%): 70%
- Percentage of cells with duration of mitosis >2 h (NHIK 3025 cells [9]; control 4%): 87%
- Percentage of cells with duration of mitosis >1 h (NHIK 3025 cells [9]; control 17%): 95%
- Percentage of cells with duration of mitosis <1 h (NHIK 3025 cells [9]; control 83%): 5%
- Cell cycle progression (in words) (NHIK 3025 cells [10]): inhibits cell cycle progression
- Cell cycle progression (in words) (NHIK 3025 cells [10]; listed as benzaldehyde): cell-cycle progression is reduced
- Irritating effect on mucous membranes (mucous membranes): strongly irritating effect on mucous membranes
- viability at 3200 µM (NHIK 3025 cells [5]; [12]): 64 ± 18%
- viability at 12800 µM (NHIK 3025 cells [5]; [12]): 2.4 ± 0.8%
